Measured values published in patent US20260034094A1, “COMPOSITIONS AND METHODS FOR INDUCING FERROPTOSIS” (Kojin Therapeutics, Inc., priority 2022, published 2026).

Experiments:
human recombinant GCL = human recombinant GCL (Homo sapiens (Human), UniProt P48506); experiment: GCL enzyme profiling assay (ADP-Glo luminescence); assay type: biochemical; settings: human recombinant GCL, ADP-Glo; read-out: GCL IC50
Method in brief: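 ADP-Glo luminescence readout; 5 nM enzyme preincubated 1 h at 22 °C with 0.6 mM ATP, then started with 1 mM glutamate and 1.2 mM α-aminobutyrate, stopped after 2 h. Buffer: HEPES pH 7.5, MgCl2, DTT, BSA, 0.2% F-127, 1% DMSO. IC50 from four-parameter logistic fit.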

RKN cells = experiment: RKN cell profiling assay (cell viability, CellTiter-Glo); assay type: cell-based; settings: cell viability, read-out: Cell Killing EC50
Method in brief: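 Cells seeded at 1,000/well in F-12 with 10% FBS, left to adhere 24 h, then compound-treated for 96 h at 0.5% final DMSO. Viability by CellTiter-Glo luminescence; EC50 from four-parameter logistic fit. Ferroptosis rescue runs included 1.5 μM ferrostatin-1 added at seeding.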

Sequence of human recombinant GCL (P48506 whole entry): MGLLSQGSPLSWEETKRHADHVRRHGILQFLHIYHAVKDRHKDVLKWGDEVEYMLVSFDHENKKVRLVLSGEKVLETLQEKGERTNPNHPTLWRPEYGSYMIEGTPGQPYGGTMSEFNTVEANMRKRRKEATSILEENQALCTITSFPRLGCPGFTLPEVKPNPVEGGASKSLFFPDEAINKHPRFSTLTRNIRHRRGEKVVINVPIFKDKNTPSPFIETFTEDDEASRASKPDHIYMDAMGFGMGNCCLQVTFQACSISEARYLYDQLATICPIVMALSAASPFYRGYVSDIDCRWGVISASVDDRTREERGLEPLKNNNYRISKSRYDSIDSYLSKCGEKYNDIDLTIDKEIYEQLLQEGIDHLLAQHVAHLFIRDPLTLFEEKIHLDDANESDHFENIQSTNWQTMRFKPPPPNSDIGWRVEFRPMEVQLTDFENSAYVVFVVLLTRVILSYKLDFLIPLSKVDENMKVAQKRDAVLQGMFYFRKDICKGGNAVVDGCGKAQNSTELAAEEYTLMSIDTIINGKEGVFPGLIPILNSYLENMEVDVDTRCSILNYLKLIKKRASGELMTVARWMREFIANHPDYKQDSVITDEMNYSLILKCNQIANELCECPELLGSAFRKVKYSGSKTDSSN

Row | IC50 (human recombinant GCL) | Structure (SMILES) | EC50 (RKN cells)
1 | ≤ 20 µM | N=S(=O)(CC[C@H](N)C(=O)O)CCC(O)(c1ccc(C2CCCC2)cn1)C(F)(F)F (stereo partly drawn) [Compound 461, (2S)-2-amino-4-(3-(5-cyclopentylpyridin-2-yl)-4,4,4-trifluoro-3-hydroxybutylsulfonimidoyl)butanoic acid] | < 1000 µM
2 | ≤ 20 µM | N=S(=O)(CC[C@H](N)C(=O)O)CCC(O)(c1ccc(-c2ccc(Cl)cc2Cl)cn1)C(F)(F)F (some centres unmarked) [Compound 463] | < 1000 µM
3 | 20 to 2000 µM | N[C@@H](CCSCCC(O)(c1ncc(-c2ccc(Cl)cc2Cl)cn1)C(F)(F)F)C(=O)O (some centres unmarked) [Compound 469] | ≥ 1000 µM
4 | 20 to 2000 µM | Cc1cc(F)ccc1-c1cnc(C(O)(CCS(=N)(=O)CC[C@H](N)C(=O)O)C(F)(F)F)nc1 (some centres unmarked) [Compound 473] | < 1000 µM
5 | 20 to 2000 µM | N=S(=O)(CC[C@H](N)C(=O)O)CCC(O)(c1ccc(C2CC2)cn1)C(F)(F)F (some centres unmarked) [Compound 475] | ≥ 1000 µM
6 | ≤ 20 µM | N=S(=O)(CC[C@H](N)C(=O)O)CCC(O)(c1ccc(-c2ccc(F)cc2F)cn1)C(F)(F)F (some centres unmarked) [Compound 477] | < 1000 µM
7 | ≤ 20 µM | Cc1cc(Cl)ccc1-c1ccc(C(O)(CCS(=N)(=O)CC[C@H](N)C(=O)O)C(F)(F)F)nc1 (some centres unmarked) [Compound 478] | < 1000 µM
8 | ≤ 20 µM | Cc1cc(F)ccc1-c1ccc(C(O)(CCS(=N)(=O)CC[C@H](N)C(=O)O)C(F)(F)F)nc1 (some centres unmarked) [Compound 479] | < 1000 µM
9 | 20 to 2000 µM | N=S(=O)(CC[C@H](N)C(=O)O)CCC(O)(c1ccc(-c2cnco2)cn1)C(F)(F)F (some centres unmarked) [Compound 480] | ≥ 1000 µM
10 | 20 to 2000 µM | CCCCS(=N)(=O)CC[C@H](N)C(=O)OCC (some centres unmarked) [Compound 482] | ≥ 1000 µM
11 | 20 to 2000 µM | CCCCS(=N)(=O)CC[C@H](N)C(=O)OC(C)(C)C (some centres unmarked) [Compound 483] | ≥ 1000 µM
12 | 20 to 2000 µM | CCC(C)(C)OC(=O)[C@@H](N)CCS(=N)(=O)CCCC(F)(F)F (some centres unmarked) [Compound 484] | < 1000 µM
13 | 20 to 2000 µM | CCCCOC(=O)[C@@H](N)CCS(=N)(=O)CCC(O)(c1ccc(-c2ccc(Cl)cc2Cl)cc1)C(F)(F)F (some centres unmarked) [Compound 485] | < 1000 µM
14 | 20 to 2000 µM | CCOC(=O)[C@@H](N)CC[S@@](=N)(=O)CC[C@@H](O)C(F)(F)F [Compound 486, ethyl (S)-2-amino-4-((R,3R)-4,4,4-trifluoro-3-hydroxybutylsulfonimidoyl)butanoate] | < 1000 µM
15 | 20 to 2000 µM | CCOC(=O)[C@@H](N)CC[S@@](=N)(=O)CC[C@@](C)(O)C(F)(F)F [Compound 487, ethyl (S)-2-amino-4-((R,3R)-4,4,4-trifluoro-3-hydroxy-3-methylbutylsulfonimidoyl)butanoate] | < 1000 µM
16 | 20 to 2000 µM | CCOC(=O)[C@@H](N)CC[S@@](=N)(=O)CC[C@](O)(c1ccccc1)C(F)(F)F [Compound 488, ethyl (S)-2-amino-4-((R,3S)-4,4,4-trifluoro-3-hydroxy-3-phenylbutylsulfonimidoyl)butanoate] | < 1000 µM
17 | > 2000 µM | CC(C)(C)OC(=O)[C@@H](N)CC[S@@](=N)(=O)CC[C@H](O)C(F)(F)F [Compound 489, tert-butyl (S)-2-amino-4-((R,3S)-4,4,4-trifluoro-3-hydroxybutylsulfonimidoyl)butanoate] | ≥ 1000 µM
18 | > 2000 µM | CC(C)(C)OC(=O)[C@@H](N)CC[S@](=N)(=O)CC[C@H](O)C(F)(F)F [Compound 490] | ≥ 1000 µM
19 | 20 to 2000 µM | CC(C)(C)OC(=O)[C@@H](N)CC[S@@](=N)(=O)CC[C@@H](O)C(F)(F)F [Compound 491, tert-butyl (S)-2-amino-4-((R,3R)-4,4,4-trifluoro-3-hydroxybutylsulfonimidoyl)butanoate] | < 1000 µM
20 | > 2000 µM | CC(C)(C)OC(=O)[C@@H](N)CC[S@](=N)(=O)CC[C@@H](O)C(F)(F)F [Compound 492] | ≥ 1000 µM
21 | ≤ 20 µM | N=S(=O)(CC[C@H](N)C(=O)O)CCC(O)(CC(F)(F)F)c1ccc(-c2ccc(Cl)cc2Cl)cc1 (stereo partly drawn) [Compound 494, (2S)-2-amino-4-(3-(2′, 4′-dichloro-[1, 1′-biphenyl]-4-yl)-5,5,5-trifluoro-3-hydroxypentylsulfonimidoyl) butanoic acid] | ≥ 1000 µM
22 | 20 to 2000 µM | N=S(=O)(C/C=C(\CC(F)(F)F)c1ccc(-c2ccc(Cl)cc2Cl)cc1)CC[C@H](N)C(=O)O (stereo partly drawn) [Compound 495, (2S)-2-amino-4-((E)-3-(2′, 4′-dichloro-[1, 1′-biphenyl]-4-yl)-5,5,5-trifluoropent-2-en-1-ylsulfonimidoyl) butanoic acid] | ≥ 1000 µM
23 | 20 to 2000 µM | N[C@H]1CC[S@@](=O)(CC[C@H](O)C(F)(F)F)=NC1=O [Compound 496, (1R,4S)-4-amino-1-((S)-4,4,4-trifluoro-3-hydroxybutyl)-5,6-dihydro-116,2-thiazin-3 (4H)-one 1-oxide] | < 1000 µM

Row | IC50 (human recombinant GCL) | Structure (SMILES) | EC50 (RKN cells)
24 | 20 to 2000 µM | CC(O)(CCS(=N)(=O)CC[C@H](N)C(=O)O)C1CCC1 (stereo partly drawn) [Compound 497, (2S)-2-amino-4-(3-cyclobutyl-3-hydroxybutylsulfonimidoyl)butanoic acid] | ≥ 1000 µM
25 | ≤ 20 µM | N=S(=O)(CC[C@H](N)C(=O)O)CCC1(c2ncc(-c3ccc(Cl)cc3Cl)cn2)CCC1 (stereo partly drawn) [Compound 498, (2S)-2-amino-4-(2-(1-(5-(2,4-dichlorophenyl)pyrimidin-2-yl)cyclobutyl)ethylsulfonimidoyl) butanoic acid] | < 1000 µM
26 | ≤ 20 µM | N[C@@H](CCS(=O)(=O)NCC(O)(c1ccc(-c2ccc(Cl)cc2Cl)cn1)C(F)(F)F)C(=O)O (stereo partly drawn) [Compound 513, (2S)-2-amino-4-(N-(2-(5-(2,4-dichlorophenyl)pyridin-2-yl)-3,3,3-trifluoro-2-hydroxypropyl)sulfamoyl)butanoic acid] | ≥ 1000 µM
27 | 20 to 2000 µM | N[C@@H](CCS(=O)(=O)NCC(O)(c1ccc(-c2ccccc2)cn1)C(F)(F)F)C(=O)O (stereo partly drawn) [Compound 514, (2S)-2-amino-4-(N-(3,3,3-trifluoro-2-hydroxy-2-(5-phenylpyridin-2-yl)propyl)sulfamoyl)butanoic acid] | ≥ 1000 µM
28 | 20 to 2000 µM | N=[S@@](=O)(CC[C@H](N)C(=O)O)CCC1(c2ccccn2)CCC1 [compound 388] | < 1000 µM
29 | > 2000 µM | N=[S@](=O)(CC[C@H](N)C(=O)O)CCC1(c2ccccn2)CCC1 [compound 389] | ≥ 1000 µM
30 | > 2000 µM | N[C@@H](CCS(=O)(=O)CCC1(c2ccccn2)CCC1)C(=O)O [compound 390] | ≥ 1000 µM
31 | ≤ 20 µM | N=S(=O)(CCC(c1ccc(S(=O)(=O)Nc2ccccc2)cc1)C(F)(F)F)CC[C@H](N)C(=O)O (some centres unmarked) [compound 499] | ≥ 1000 µM
32 | ≤ 20 µM | N=[S@SP2](=O)(CCC(N)C(=O)O)CCC12CC(c3ccc(C(F)(F)F)cc3)(C1)C2(F)F (centres unmarked) [compound 500] | ≥ 1000 µM
33 | ≤ 20 µM | N=S(=O)(CC[C@H](N)C(=O)O)CCC(O)(c1ccc(Oc2ccc3ccc(=O)oc3c2)cc1)C(F)(F)F (some centres unmarked) [compound 501] | ≥ 1000 µM
34 | ≤ 20 µM | N=S(=O)(CC[C@H](N)C(=O)O)CCC(O)(c1nc2ccccc2o1)C(F)(F)F (some centres unmarked) [compound 502] | < 1000 µM
35 | 20 to 2000 µM | N=S(=O)(CC[C@H](N)C(=O)O)CCC(O)(C1[C@@H](c2ccccc2)[C@H]1c1ccccc1)C(F)(F)F (some centres unmarked) [compound 503] | ≥ 1000 µM
36 | ≤ 20 µM | CC(=O)N(c1ccc(C(O)(CC[S@SP3](=N)(=O)CCC(N)C(=O)O)C(F)(F)F)cc1)c1nccs1 (centres unmarked) [compound 504] | ≥ 1000 µM
37 | ≤ 20 µM | N=[S@SP2](=O)(CCC(N)C(=O)O)CCC(O)(c1ccc(Nc2nccs2)cc1)C(F)(F)F (centres unmarked) [compound 505] | ≥ 1000 µM
38 | 20 to 2000 µM | CC(=O)Nc1ccc(C(O)(CCS(=N)(=O)CC[C@H](N)C(=O)O)C(F)(F)F)cc1 (some centres unmarked) [compound 506] | < 1000 µM
39 | ≤ 20 µM | N=[S@SP2](=O)(CCC(N)C(=O)O)CCC(O)(c1ccc(N[S@SP3](=O)(=O)c2ccccc2)cc1)C(F)(F)F (centres unmarked) [compound 507] | ≥ 1000 µM
40 | 20 to 2000 µM | N=[S@SP2](=O)(CCC(N)C(=O)O)CCC(c1ccccc1)(C(F)(F)F)C(F)(F)F (centres unmarked) [compound 508] | ≥ 1000 µM
41 | ≤ 20 µM | N=[S@SP2](=O)(CCC(N)C(=O)O)CCC(c1ccc(-c2ccccc2)cc1)(C(F)(F)F)C(F)(F)F (centres unmarked) [compound 509] | ≥ 1000 µM
42 | ≤ 20 µM | N=S(=O)(CC[C@H](N)C(=O)O)CCC(c1ccc(-c2ccc(Cl)cc2Cl)cc1)(C(F)(F)F)C(F)(F)F (some centres unmarked) [compound 510] | ≥ 1000 µM
43 | 20 to 2000 µM | N=S(=O)(CC[C@H](N)C(=O)O)CCC1(C(F)(F)F)OCc2ccccc21 (some centres unmarked) [compound 511] | < 1000 µM
44 | > 2000 µM | N[C@@H](CCS(=O)(=O)CCC1(C(F)(F)F)OC(=O)c2ccccc21)C(=O)O (some centres unmarked) [compound 512] | ≥ 1000 µM
45 | ≤ 20 µM | N=[S@@](=O)(CC[C@H](N)C(=O)O)CCC1(CO)CCC1 [compound 515] | < 1000 µM
46 | > 2000 µM | N[C@@H](CCS(=O)(=O)CCC(O)C(F)(F)F)C(=O)O (some centres unmarked) [compound 516] | ≥ 1000 µM
